The test system of one assay is PC-3. Nature of the assay: In vitro proliferation assay (MTT), PC-3. The assay is classed as cell-based, human. The following applies: value (SD, n) where given, read-out: PC-3 Prostate (IC50 µM). The gist of the method:
(§1)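 Tetrazolium (MTT) reduction measures live cells remaining after 3 days with test compound, following overnight attachment at 1000–2500 cells/well. Dye is taken up in DMSO and read at 570 nm.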

The next assay concerns the target cdk1/cyclin B (Homo sapiens, UniProt P06493). Put plainly: Cyclin-dependent kinase assay, cdk1/cyclin B.
Another assay concerns MDA-MB-435. Nature of the assay: In vitro proliferation assay (MTT), MDA-MB-435. It is filed as cell-based, human. To be noted: value (SD, n) where given, read-out: MB-435 Breast (IC50 µM). The gist of the method:
as §1

The next assay has as its target cdk4/cyclin D1 (Homo sapiens, UniProt P11802). Nature of the assay: Cyclin-dependent kinase assay, cdk4/cyclin D1. It is filed as biochemical.
In a further assay the target is cdk2/cyclin E (Homo sapiens, UniProt P24941). Put plainly: Cyclin-dependent kinase assay, cdk2/cyclin E.
The mark [1] stands for this setting: CDK1 IC50, nM, Histone H1, 10 µM ATP.
The mark [2] stands for this setting: Homo sapiens, MDA-MB-435, MTT assay.
[3] abbreviates: cyclin D1/cdk4, GST-pRb substrate, 10 µM ATP.
[4] abbreviates: CDK2 IC50, nM, GST-pRb substrate, 10 µM ATP.

Where a name gives a salt, the structure may show the parent alone. Read-outs that look alike come from different tables or passages of the source.

Chain of cdk1/cyclin B (P06493 whole entry): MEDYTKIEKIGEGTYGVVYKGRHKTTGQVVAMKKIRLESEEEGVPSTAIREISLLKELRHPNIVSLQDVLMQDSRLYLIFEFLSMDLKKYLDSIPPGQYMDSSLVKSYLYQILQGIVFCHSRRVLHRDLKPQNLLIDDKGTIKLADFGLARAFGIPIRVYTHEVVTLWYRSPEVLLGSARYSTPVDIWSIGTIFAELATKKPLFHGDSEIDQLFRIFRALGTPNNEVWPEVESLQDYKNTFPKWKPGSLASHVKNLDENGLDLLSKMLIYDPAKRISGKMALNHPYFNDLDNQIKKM
Chain of cdk1/cyclin B (P14635 whole entry partner): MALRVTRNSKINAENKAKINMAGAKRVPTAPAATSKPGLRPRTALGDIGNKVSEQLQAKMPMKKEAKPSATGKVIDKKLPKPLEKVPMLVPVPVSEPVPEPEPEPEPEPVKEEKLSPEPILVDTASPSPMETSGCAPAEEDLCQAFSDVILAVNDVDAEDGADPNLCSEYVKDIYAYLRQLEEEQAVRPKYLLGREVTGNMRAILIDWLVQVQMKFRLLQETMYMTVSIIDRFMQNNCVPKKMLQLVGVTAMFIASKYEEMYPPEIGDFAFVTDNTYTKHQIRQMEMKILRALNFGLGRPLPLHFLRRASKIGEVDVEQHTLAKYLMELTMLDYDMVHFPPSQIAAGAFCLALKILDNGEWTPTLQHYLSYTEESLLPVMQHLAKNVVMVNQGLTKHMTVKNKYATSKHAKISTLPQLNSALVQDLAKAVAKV
Chain of cdk4/cyclin D1 (P11802 whole entry): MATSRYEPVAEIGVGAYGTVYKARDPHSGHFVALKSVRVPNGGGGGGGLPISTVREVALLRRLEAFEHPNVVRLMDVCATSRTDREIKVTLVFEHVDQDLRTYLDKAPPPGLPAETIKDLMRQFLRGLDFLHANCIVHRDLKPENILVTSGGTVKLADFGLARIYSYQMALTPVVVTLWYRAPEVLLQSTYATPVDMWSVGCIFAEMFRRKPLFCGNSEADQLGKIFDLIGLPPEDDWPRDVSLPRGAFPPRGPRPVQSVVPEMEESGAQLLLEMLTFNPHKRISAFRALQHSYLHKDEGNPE
Chain of cdk4/cyclin D1 (P24385 whole entry partner): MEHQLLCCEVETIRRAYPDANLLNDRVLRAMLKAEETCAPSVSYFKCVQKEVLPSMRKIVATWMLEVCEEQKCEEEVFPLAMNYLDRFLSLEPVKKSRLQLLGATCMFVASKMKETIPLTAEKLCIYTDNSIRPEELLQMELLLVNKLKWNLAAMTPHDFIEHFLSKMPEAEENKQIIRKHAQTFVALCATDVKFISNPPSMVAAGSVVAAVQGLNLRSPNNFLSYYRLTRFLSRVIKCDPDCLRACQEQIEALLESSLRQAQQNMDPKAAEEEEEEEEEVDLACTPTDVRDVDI

For the compound `CC(C)n1cnc2c(NC3CCN(C(=O)Nc4ccc(OC(F)(F)F)cc4)CC3)nc(N[C@H]3CC[C@H](N)CC3)nc21` [compound 211, trans-4-[2-(4-Amino-cyclohexylamino)-9-isopropyl-9H-purin-6-ylamino]-piperidine-1-carboxylic acid (4-trifluoromethoxy-phenyl)-amide dihydrochloride], the IC50 came out at 0.56 µM with PC-3 (Homo sapiens, PC-3, MTT assay); 197 nM at cdk1/cyclin B (setting [1]); 0.69 µM in the assay with MDA-MB-435 (setting [2]); 7000 nM at cdk4/cyclin D1 (setting [3]); 612 nM against cdk2/cyclin E (setting [4]).

On to `Cc1cccc(C(=O)N2CCC(Nc3nc(N[C@H]4CC[C@H](N)CC4)nc4c3ncn4C3CCCC3)CC2)c1` [compound 73, trans-1-{4-[2-(4-Amino-cyclohexylamino)-9-cyclopentyl-9H-purin-6-ylamino]-piperidin-1-yl}-1-(3-methyl-phenyl)-methanone], for which the half-inhibitory concentration (IC50) came out at 1.35 µM in the assay with PC-3 (Homo sapiens, PC-3, MTT assay); 100 nM at cdk1/cyclin B (setting [1]); 1.31 µM in the assay on MDA-MB-435 (setting [2]); 410 nM on cdk4/cyclin D1 (setting [3]); 73 nM against cdk2/cyclin E (setting [4]).

Consider `N[C@H]1CC[C@H](Nc2nc(NC3CCN(S(=O)(=O)Cc4ccccc4)CC3)c3ncn(C4CCCC4)c3n2)CC1` [compound 119, trans-N^2-(4-Amino-cyclohexyl)-9-cyclopentyl-N^6-(1-phenylmethanesulfonyl-piperidin-4-yl)-9H-purine-2,6-diamine dihydrochloride], for which the half-maximal inhibitory concentration (IC50) with PC-3 (Homo sapiens, PC-3, MTT assay) turned out to be 0.52 µM; against cdk1/cyclin B (setting [1]), 25 nM; in the assay with MDA-MB-435 (setting [2]), 0.4 µM; against cdk4/cyclin D1 (setting [3]) it was 65 nM; at cdk2/cyclin E (setting [4]) it was 31 nM.

On to `Cc1ccc(S(=O)(=O)N2CCC(Nc3nc(N[C@H]4CC[C@H](N)CC4)nc4c3ncn4C3CCCC3)CC2)cc1` [compound 124, trans-N^2-(4-Amino-cyclohexyl)-9-cyclopentyl-N^6-[1-(toluene-4-sulfonyl)-piperidin-4-yl]-9H-purine-2,6-diamine dihydrochloride], for which the IC50 in the assay on PC-3 (Homo sapiens, PC-3, MTT assay) was found to be 0.56 µM; against cdk1/cyclin B (setting [1]), 10 nM; with MDA-MB-435 (setting [2]), 0.44 µM; at cdk4/cyclin D1 (setting [3]) it was 77 nM; on cdk2/cyclin E (setting [4]) it was 26 nM.

In the case of `CC(C)S(=O)(=O)N1CCC(Nc2nc(N[C@H]3CC[C@H](N)CC3)nc3c2ncn3C2CCCC2)CC1` [compound 125, trans-N^2-(4-Amino-cyclohexyl)-9-cyclopentyl-N^6-[1-(propane-2-sulfonyl)-piperidin-4-yl]-9H-purine-2,6-diamine dihydrochloride], the IC50 in the assay on PC-3 (Homo sapiens, PC-3, MTT assay) came to 1.29 µM; on cdk1/cyclin B (setting [1]), 180 nM; in the assay with MDA-MB-435 (setting [2]), 1.03 µM; on cdk4/cyclin D1 (setting [3]), 62 nM; against cdk2/cyclin E (setting [4]) it was 38 nM.

Turning to `N[C@H]1CC[C@H](Nc2nc(NC3CCN(C(=O)C4CC4)CC3)c3ncn(C4CCCC4)c3n2)CC1` [compound 64, trans-1-{4-[2-(4-Amino-cyclohexylamino)-9-cyclopentyl-9H-purin-6-ylamino]-piperidin-1-yl}-1-cyclopropyl-methanone dihydrochloride], the IC50 in the assay on PC-3 (Homo sapiens, PC-3, MTT assay) worked out at 1.03 µM; on cdk1/cyclin B (setting [1]), 65 nM; in the assay with MDA-MB-435 (setting [2]), 1.13 µM; against cdk4/cyclin D1 (setting [3]), 593 nM; at cdk2/cyclin E (setting [4]), 62 nM.

For `N[C@H]1CC[C@H](Nc2nc(NC3CCN(S(=O)(=O)c4c(Cl)cccc4Cl)CC3)c3ncn(C4CCCC4)c3n2)CC1` [compound 121, trans-N^2-(4-Amino-cyclohexyl)-9-cyclopentyl-N^6-[1-(2,6-dichloro-benzenesulfonyl)-piperidin-4-yl]-9H-purine-2,6-diamine dihydrochloride], the IC50 in the assay on PC-3 (Homo sapiens, PC-3, MTT assay) was determined as 0.82 µM; against cdk1/cyclin B (setting [1]), 120 nM; with MDA-MB-435 (setting [2]), 0.66 µM; against cdk4/cyclin D1 (setting [3]) it was 83 nM; against cdk2/cyclin E (setting [4]), 50 nM.

As to `CCCC(=O)N1CCC(Nc2nc(N[C@H]3CC[C@H](N)CC3)nc3c2ncn3C2CCCC2)CC1` [compound 58, trans-1-{4-[2-(4-Amino-cyclohexylamino)-9-cyclopentyl-9H-purin-6-ylamino]-piperidin-1-yl}-butan-1-one dihydrochloride], the IC50 in the assay on PC-3 (Homo sapiens, PC-3, MTT assay) is 0.94 µM; against cdk1/cyclin B (setting [1]), 52 nM; in the assay on MDA-MB-435 (setting [2]) it was 1.01 µM; on cdk4/cyclin D1 (setting [3]), 357 nM; against cdk2/cyclin E (setting [4]), 68 nM.

For the compound `CC(=O)c1ccc(NC(=O)N2CCC(Nc3nc(N[C@H]4CC[C@H](N)CC4)nc4c3ncn4C3CCCC3)CC2)cc1` [compound 188, trans-4-[2-(4-Amino-cyclohexylamino)-9-cyclopentyl-9H-purin-6-ylamino]-piperidine-1-carboxylic acid (4-acetyl-phenyl)-amide dihydrochloride], the IC50 was 0.5 µM with PC-3 (Homo sapiens, PC-3, MTT assay); 14 nM against cdk1/cyclin B (setting [1]); 0.48 µM in the assay on MDA-MB-435 (setting [2]); 170 nM at cdk4/cyclin D1 (setting [3]); 31 nM on cdk2/cyclin E (setting [4]).

With `C/C=C/C(=O)N1CCC(Nc2nc(N[C@H]3CC[C@H](N)CC3)nc3c2ncn3C2CCCC2)CC1` [compound 35, trans (E)-1-{4-[2-(4-Amino-cyclohexylamino)-9-cyclopentyl-9H-purin-6-ylamino]-piperidin-1-yl}-but-2-en-1-one dihydrochloride], the IC50 in the assay on PC-3 (Homo sapiens, PC-3, MTT assay) stood at 0.98 µM; against cdk1/cyclin B (setting [1]), 48 nM; in the assay with MDA-MB-435 (setting [2]), 1.38 µM; on cdk4/cyclin D1 (setting [3]), 766 nM; against cdk2/cyclin E (setting [4]) it was 55 nM.

Consider `CCCCCCCOc1ccc(C(=O)N2CCC(Nc3nc(N[C@H]4CC[C@H](N)CC4)nc4c3ncn4C3CCCC3)CC2)cc1` [compound 19, trans-1-{4-[2-(4-Amino-cyclohexylamino)-9-cyclopentyl-9H-purin-6-ylamino]-piperidin-1-yl}-1-(4-heptoxy-phenyl)-methanone], for which the IC50 was 0.96 µM in the assay with PC-3 (Homo sapiens, PC-3, MTT assay); 62 nM on cdk1/cyclin B (setting [1]); 0.58 µM with MDA-MB-435 (setting [2]); 883 nM against cdk4/cyclin D1 (setting [3]); 567 nM against cdk2/cyclin E (setting [4]).

Take `N[C@H]1CC[C@H](Nc2nc(NC3CCN(C(=O)NC4CCCCC4)CC3)c3ncn(C4CCCC4)c3n2)CC1` [compound 205, trans-4-[2-(4-Amino-cyclohexylamino)-9-cyclopentyl-9H-purin-6-ylamino]-piperidine-1-carboxylic acid cyclohexylamide dihydrochloride]: the IC50 with PC-3 (Homo sapiens, PC-3, MTT assay) is 1.63 µM; at cdk1/cyclin B (setting [1]), 290 nM; in the assay on MDA-MB-435 (setting [2]) it was 1.84 µM; on cdk4/cyclin D1 (setting [3]), 3250 nM; against cdk2/cyclin E (setting [4]), 232 nM.

As to `CC(C)C(=O)N1CCC(Nc2nc(N[C@H]3CC[C@H](N)CC3)nc3c2ncn3C2CCCC2)CC1` [compound 59, trans-1-{4-[2-(4-Amino-cyclohexylamino)-9-cyclopentyl-9H-purin-6-ylamino]-piperidin-1-yl) -2-methyl-propan-1-one dihydrochloride], the IC50 turned out to be 0.96 µM in the assay on PC-3 (Homo sapiens, PC-3, MTT assay); 93 nM against cdk1/cyclin B (setting [1]); 0.62 µM with MDA-MB-435 (setting [2]); 721 nM against cdk4/cyclin D1 (setting [3]); 52 nM on cdk2/cyclin E (setting [4]).

Take `CCCNC(=O)N1CCC(Nc2nc(N[C@H]3CC[C@H](N)CC3)nc3c2ncn3C2CCCC2)CC1` [compound 206, trans-4-[2-(4-Amino-cyclohexylamino)-9-cyclopentyl-9H-purin-6-ylamino]-piperidine-1-carboxylic acid propylamide dihydrochloride]: the half-inhibitory concentration (IC50) in the assay on PC-3 (Homo sapiens, PC-3, MTT assay) was determined as 2.89 µM; against cdk1/cyclin B (setting [1]) it was 210 nM; in the assay with MDA-MB-435 (setting [2]), 2.68 µM; at cdk4/cyclin D1 (setting [3]), 85 nM; against cdk2/cyclin E (setting [4]), 7 nM.

On to `CCCCS(=O)(=O)N1CCC(Nc2nc(N[C@H]3CC[C@H](N)CC3)nc3c2ncn3C2CCCC2)CC1` [compound 129, trans-N^2-(4-Amino-cyclohexyl)-N^6-[1-(butane-1-sulfonyl)-piperidin-4-yl]-9-cyclopentyl-9H-purine-2,6-diamine dihydrochloride], for which the IC50 in the assay on PC-3 (Homo sapiens, PC-3, MTT assay) worked out at 0.64 µM; against cdk1/cyclin B (setting [1]) it was 60 nM; with MDA-MB-435 (setting [2]) it was 0.46 µM; at cdk4/cyclin D1 (setting [3]), 60 nM; against cdk2/cyclin E (setting [4]) it was 9 nM.

As for “trans 1-{4-[2-(4-Amino-cyclohexylamino)-9-cyclopentyl-9H-purin-6-ylamino]-piperidin-1-yl}-3-(2,5-dimethoxy-phenyl)-propan-1-one dihydrochloride [compound 34]”, the IC50 was determined as 0.67 µM with PC-3 (MTT assay); 31 nM on cdk1/cyclin B (read-out: CDK1 IC50, Histone H1, 10 µM ATP); 0.69 µM in the assay on MDA-MB-435 (MTT assay); 997 nM at cdk4/cyclin D1; 58 nM at cdk2/cyclin E (read-out: CDK2 IC50, GST-pRb substrate, 10 µM ATP).

Regarding `CCOC(=O)CC(=O)N1CCC(Nc2nc(N[C@H]3CC[C@H](N)CC3)nc3c2ncn3C2CCCC2)CC1` [compound 29, trans-3-{4-[2-(4-Amino-cyclohexylamino)-9-cyclopentyl-9H-purin-6-ylamino]-piperidin-1-yl}-3-oxo-propionic acid ethyl ester dihydrochloride], the 50% inhibitory concentration (IC50) in the assay on PC-3 (Homo sapiens, PC-3, MTT assay) was found to be 2.4 µM; against cdk1/cyclin B (setting [1]), 27 nM; with MDA-MB-435 (setting [2]) it was 3 µM; on cdk4/cyclin D1 (setting [3]), 632 nM; against cdk2/cyclin E (setting [4]), 56 nM.

Consider `N[C@H]1CC[C@H](Nc2nc(NC3CCN(C(=O)c4ccc(Br)cc4)CC3)c3ncn(C4CCCC4)c3n2)CC1` [compound 74, trans-1-{4-[2-(4-Amino-cyclohexylamino)-9-cyclopentyl-9H-purin-6-ylamino]-piperidin-1-yl}-1-(4-bromo-phenyl)-methanone], for which the IC50 with PC-3 (Homo sapiens, PC-3, MTT assay) stood at 1.25 µM; against cdk1/cyclin B (setting [1]) it was 62 nM; in the assay with MDA-MB-435 (setting [2]), 1.07 µM; on cdk4/cyclin D1 (setting [3]) it was 560 nM; against cdk2/cyclin E (setting [4]) it was 239 nM.

The term IC50 denotes the point on the concentration scale where inhibition reaches its midpoint.
